Reference: publication PMC8387461, “T cell receptor recognition of hybrid insulin peptides bound to HLA-DQ8” (Nature Communications, 2021)

What was measured:
CD4+ T cell clone A5.5 = experiment: T cell stimulation assay, IFNγ ELISA, clone A5.5; assay type: cell-based, human; conditions: primary clone A5.5, APC EBV-KJ, 24 h
Description: Fig. 2 Comparison of the stimulatory capacity of full-length proinsulin C-peptide and HIP on T1D CD4 + T cell clones. […] Titration of full-length 31-mer C-peptide ([…], (open circles) and 15mer C-peptide-IAPP2 HIP ([…] (filled circles). Antigen presenting cells (APC) were the EBV line, EBV-KJ, (2 × 10^4 cells/well). APC were cultured for 24 h with the same number (2 × 10^4 cells/well) of the primary CD4 + T-cell clone and the peptide concentration indicated. T-cell response to peptide were indicated by secretion of IFNγ which was measured in triplicate by ELISA and reported as pg/ml. Mean and standard deviations of triplicate IFNγ measurements are shown. Results are representative of two experiments for each clone.
For primary T1D CD4+ T cell clones, cells were thawed and used directly in functional assays. For T cell stimulation assays, cloned CD4+ T cells were incubated with BLCL KJ (; HLA-DQ8 + : HLA-DQA1*03:01, HLA-DQB1*03:02), as APCs, together with synthetic peptides. For the alanine scan experiments, each peptide was added to a final concentration of 10 μM. T cell response to antigen was measured as interferon gamma (IFNγ) secretion into the culture media. The IFNγ concentration in the culture media was determined by ELISA (Biolegend).
Supplementary Figure 8. […]
type) at each position P-3 to P12 are shown. IFNγ was measured in triplicate by ELISA, concentrations are shown in pg/ml. […]

HLA-DQ8 = experiment: Size exclusion chromatography, aggregate versus monomer of HLA-DQ8-peptide; assay type: physicochemical, human; conditions: SEC, data not shown
From the text: The proinsulin C-peptide epitope (PI40-54 […]; predicted binding register in bold) lacks both a preferred acidic residue at P9 and aliphatic residue at P4, whereas HIP ([…]) lacks the preferred P4 residue. […] To overcome this, as undertaken previously with a modified B:11-23 peptide and HLA-DQ8[22], we engineered a construct with a disulfide bond between p11 of the HIP peptide or proinsulin C-peptide and HLA-DQ8α I72C to produce HLA-DQ8αΙ72C-CpepL11C (HLA-DQ8-CpepL11C; […]; predicted binding register in bold, P11Cys in italics) and HLA-DQ8αΙ72C-HIPL11C (HLA-DQ8-HIPL11C; […]; predicted binding register in bold, proinsulin C-peptide derived underlined, IAPP2 derived bold italics and P11Cys italics).

stability of HLA-DQ8 complex (ratio of aggregate versus monomer) (HLA-DQ8): unstable HLA-DQ8 binary complexes
Sequence: GQVELGGGNAVEVLK [HIP]
sensitivity to HIP versus native proinsulin C-peptide (CD4+ T cell clone A5.5): ten times more sensitive to the HIP peptide than native proinsulin C-peptide
